Patent US10125138B2, “Triazolotriazinone derivatives having activity a s herbicides” (Syngenta Participations AG, priority 2015, dated 2018)

Experiments:
Type in all cases: in vivo
Details in all cases: 1000 g/h, evaluated after 13 days, five point scale
[1] = test system: Ipomoea hederacea (IPOHE); experiment: Post-emergence glasshouse herbicide test, Ipomoea hederacea
Lolium perenne (LOLPE) [2] = experiment: Pre-emergence glasshouse herbicide test, Lolium perenne
Lolium perenne (LOLPE) [3] = experiment: Post-emergence glasshouse herbicide test, Lolium perenne
Solanum nigrum (SOLNI) [4] = experiment: Pre-emergence glasshouse herbicide test, Solanum nigrum
Experimental: (§1) Seeds of a variety of test species are sown in standard soil in pots (Lolium perenne (LOLPE), Solanum nigrum (SOLNI), Amaranthus retoflexus (AMARE), Setaria faberi (SETFA), Echinochloa crus-galli (ECHCG), Ipomoea hederacea (IPOHE)). After cultivation for one day (pre-emergence) or after 8 days cultivation (post-emergence) under controlled conditions in a glasshouse (at 24/16° C., day/night; 14 hours light; 65% humidity), the plants are sprayed with an aqueous spray solution derived from the formulation of the technical active ingredient in acetone/water (50:50) solution containing 0.5% Tween 20 (polyoxyethelyene sorbitan monolaurate, CAS RN 9005-64-5). Compounds are applied at 1000 g/h. The test plants are then grown in a glasshouse under controlled conditions in a glasshouse (at 24/16° C., day/night; 14 hours light; 65% humidity) and watered twice daily. After 13 days for pre and post-emergence, the test is evaluated for the percentage damage caused to the plant. The biological activities are shown in the following table on a five point scale (5=80-100%; 4=60-79%; 3=40-59%; 2=20-39%; 1=0-19%).

[5] = test system: Amaranthus retoflexus (AMARE); experiment: Post-emergence glasshouse herbicide test, Amaranthus retoflexus
Solanum nigrum (SOLNI) [6] = experiment: Post-emergence glasshouse herbicide test, Solanum nigrum
Experimental: as §1

[7] = test system: Echinochloa crus-galli (ECHCG); experiment: Pre-emergence glasshouse herbicide test, Echinochloa crus-galli
Setaria faberi (SETFA) [8] = experiment: Pre-emergence glasshouse herbicide test, Setaria faberi
[9] = test system: Amaranthus retoflexus (AMARE); experiment: Pre-emergence glasshouse herbicide test, Amaranthus retoflexus
[10] = test system: Ipomoea hederacea (IPOHE); experiment: Pre-emergence glasshouse herbicide test, Ipomoea hederacea
Setaria faberi (SETFA) [11] = experiment: Post-emergence glasshouse herbicide test, Setaria faberi
[12] = test system: Echinochloa crus-galli (ECHCG); experiment: Post-emergence glasshouse herbicide test, Echinochloa crus-galli

SMILES: CCn1nnnc1NC(=O)c1nn2cnn(-c3ccc(C)cc3C)c2nc1=O [Compound 1.045]
- percentage damage caused to the plant, POST Application IPOHE [1]: 5 (5=80-100%)
- percentage damage caused to the plant, PRE Application LOLPE (Lolium perenne (LOLPE) [2]): 5 (5=80-100%)
- percentage damage caused to the plant, POST Application LOLPE (Lolium perenne (LOLPE) [3]): 5 (5=80-100%)
- percentage damage caused to the plant, PRE Application SOLNI (Solanum nigrum (SOLNI) [4]): 5 (5=80-100%)
- percentage damage caused to the plant, POST Application AMARE [5]: 5 (5=80-100%)
- percentage damage caused to the plant, POST Application SOLNI (Solanum nigrum (SOLNI) [6]): 5 (5=80-100%)
- percentage damage caused to the plant, PRE Application ECHCG [7]: 5 (5=80-100%)
- percentage damage caused to the plant, PRE Application SETFA (Setaria faberi (SETFA) [8]): 4 (4=60-79%)
- percentage damage caused to the plant, PRE Application AMARE [9]: 5 (5=80-100%)
- percentage damage caused to the plant, PRE Application IPOHE [10]: 5 (5=80-100%)
- percentage damage caused to the plant, POST Application SETFA (Setaria faberi (SETFA) [11]): 5 (5=80-100%)
- percentage damage caused to the plant, POST Application ECHCG [12]: 5 (5=80-100%)

SMILES: Cn1ncnc1NC(=O)c1nn2cnn(-c3ccc(F)cc3)c2nc1=O [Compound 2.001]
- percentage damage caused to the plant, POST Application IPOHE [1]: 5 (5=80-100%)
- percentage damage caused to the plant, PRE Application LOLPE (Lolium perenne (LOLPE) [2]): 3 (3=40-59%)
- percentage damage caused to the plant, POST Application LOLPE (Lolium perenne (LOLPE) [3]): 4 (4=60-79%)
- percentage damage caused to the plant, PRE Application SOLNI (Solanum nigrum (SOLNI) [4]): 5 (5=80-100%)
- percentage damage caused to the plant, POST Application AMARE [5]: 5 (5=80-100%)
- percentage damage caused to the plant, POST Application SOLNI (Solanum nigrum (SOLNI) [6]): 5 (5=80-100%)
- percentage damage caused to the plant, PRE Application ECHCG [7]: 5 (5=80-100%)
- percentage damage caused to the plant, PRE Application SETFA (Setaria faberi (SETFA) [8]): 5 (5=80-100%)
- percentage damage caused to the plant, PRE Application AMARE [9]: 5 (5=80-100%)
- percentage damage caused to the plant, PRE Application IPOHE [10]: 4 (4=60-79%)
- percentage damage caused to the plant, POST Application SETFA (Setaria faberi (SETFA) [11]): 5 (5=80-100%)
- percentage damage caused to the plant, POST Application ECHCG [12]: 4 (4=60-79%)

SMILES: Cn1cnnc1NC(=O)c1nn2cnn(-c3ccc(F)cc3)c2nc1=O [Compound 3.001]
- percentage damage caused to the plant, POST Application IPOHE [1]: 1 (1=0-19%)
- percentage damage caused to the plant, PRE Application LOLPE (Lolium perenne (LOLPE) [2]): 1 (1=0-19%)
- percentage damage caused to the plant, POST Application LOLPE (Lolium perenne (LOLPE) [3]): 1 (1=0-19%)
- percentage damage caused to the plant, PRE Application SOLNI (Solanum nigrum (SOLNI) [4]): 1 (1=0-19%)
- percentage damage caused to the plant, POST Application AMARE [5]: 3 (3=40-59%)
- percentage damage caused to the plant, POST Application SOLNI (Solanum nigrum (SOLNI) [6]): 5 (5=80-100%)
- percentage damage caused to the plant, PRE Application ECHCG [7]: 1 (1=0-19%)
- percentage damage caused to the plant, PRE Application SETFA (Setaria faberi (SETFA) [8]): 1 (1=0-19%)
- percentage damage caused to the plant, PRE Application AMARE [9]: 3 (3=40-59%)
- percentage damage caused to the plant, PRE Application IPOHE [10]: 1 (1=0-19%)
- percentage damage caused to the plant, POST Application SETFA (Setaria faberi (SETFA) [11]): 1 (1=0-19%)
- percentage damage caused to the plant, POST Application ECHCG [12]: 1 (1=0-19%)

SMILES: O=C1CCCC(=O)C1C(=O)c1nn2cnn(-c3ccc(F)cc3)c2nc1=O [Compound 4.002]
- percentage damage caused to the plant, POST Application IPOHE [1]: 5 (5=80-100%)
- percentage damage caused to the plant, PRE Application LOLPE (Lolium perenne (LOLPE) [2]): 4 (4=60-79%)
- percentage damage caused to the plant, POST Application LOLPE (Lolium perenne (LOLPE) [3]): 5 (5=80-100%)
- percentage damage caused to the plant, PRE Application SOLNI (Solanum nigrum (SOLNI) [4]): 5 (5=80-100%)
- percentage damage caused to the plant, POST Application AMARE [5]: 5 (5=80-100%)
- percentage damage caused to the plant, POST Application SOLNI (Solanum nigrum (SOLNI) [6]): 5 (5=80-100%)
- percentage damage caused to the plant, PRE Application ECHCG [7]: 5 (5=80-100%)
- percentage damage caused to the plant, PRE Application SETFA (Setaria faberi (SETFA) [8]): 5 (5=80-100%)
- percentage damage caused to the plant, PRE Application AMARE [9]: 5 (5=80-100%)
- percentage damage caused to the plant, PRE Application IPOHE [10]: 5 (5=80-100%)
- percentage damage caused to the plant, POST Application SETFA (Setaria faberi (SETFA) [11]): 5 (5=80-100%)
- percentage damage caused to the plant, POST Application ECHCG [12]: 5 (5=80-100%)

SMILES: COc1cccc(-n2ncn3nc(C(=O)C4C(=O)CCCC4=O)c(=O)nc23)c1 [Compound 4.010]
- percentage damage caused to the plant, POST Application IPOHE [1]: 5 (5=80-100%)
- percentage damage caused to the plant, PRE Application LOLPE (Lolium perenne (LOLPE) [2]): 5 (5=80-100%)
- percentage damage caused to the plant, POST Application LOLPE (Lolium perenne (LOLPE) [3]): 4 (4=60-79%)
- percentage damage caused to the plant, PRE Application SOLNI (Solanum nigrum (SOLNI) [4]): 5 (5=80-100%)
- percentage damage caused to the plant, POST Application AMARE [5]: 5 (5=80-100%)
- percentage damage caused to the plant, POST Application SOLNI (Solanum nigrum (SOLNI) [6]): 5 (5=80-100%)
- percentage damage caused to the plant, PRE Application ECHCG [7]: 5 (5=80-100%)
- percentage damage caused to the plant, PRE Application SETFA (Setaria faberi (SETFA) [8]): 5 (5=80-100%)
- percentage damage caused to the plant, PRE Application AMARE [9]: 5 (5=80-100%)
- percentage damage caused to the plant, PRE Application IPOHE [10]: 5 (5=80-100%)
- percentage damage caused to the plant, POST Application SETFA (Setaria faberi (SETFA) [11]): 5 (5=80-100%)
- percentage damage caused to the plant, POST Application ECHCG [12]: 5 (5=80-100%)
